In assay [1] the test system is HCT116, a colorectal carcinoma cell line. The assay is described as follows: Tetrazolium dye (MTT) proliferation assay. It counts as cell-based. To be noted: Homo sapiens, HCT-116; HCT116 cells, inhibition of cell proliferation. How it is done:
Proliferation was evaluated by the tetrazolium dye assay according to the procedure of Denizot and Lang (Denizot, F. and Lang, R. J Immunol Methods 1986, 89, 271–277). The cell line used was HCT116, a colorectal carcinoma cell line obtained from the American Type Cell Culture Collection (ATCC; Rockville, Md.). The cells were grown in McCoy's 5A medium supplemented with 10% FCS and L-glutamine.
Cells were plated at the appropriate seeding density to give logarithmic growth over the course of the assay in a 96-well tissue culture plate. Plates were incubated overnight at 37° C. in a humidified incubator with 5% CO2. The next day, test compounds were serially diluted to four times the final concentration in the appropriate medium containing 1.2% DMSO. One-fourth final volume of each dilution was added in duplicate to the plates containing cells. The same volume of 1.2% DMSO in medium was added to a row of “control wells” such that the final concentration of DMSO in each well was 0.3%. Wells to which no cells were added served as the “blank.” Wells to which no inhibitor was added served as “no inhibitor control.” The plates were) returned to the incubator, and at set time points (determined by their growth curves) plates were analyzed as described below.
3-(4,5-dimethylthiazole-2-yl)-2,5-diphenyl-2H-tetrazolium bromide (thiazolyl blue; MTT; Sigma) was added to each well to yield a final concentration of 1 mg/ml. Plates were returned to the incubator for 2.5–3 hours at 37° C. The MTT-containing medium was removed and the resulting formazan metabolite was solubilized in 100% ethanol with shaking for 15 minutes at room temperature. Absorbance readings were taken in a microtiter plate reader (Dynatech and Molecular Devices plate readers were used interchangeably) at a wavelength of 570 nm with a 650 nm reference. Percent inhibition (% INH) is calculated by subtracting the absorbance of the blank well from all wells, then subtracting the ratio of the average absorbance of each test duplicate (SAVE) by the average of the controls (CAVE) from 1.00. The final number is then multiplied by 100 (% INH=(1.00−SAVE/CAVE)×100). The concentration at which 50% inhibition of cell proliferation is obtained (the IC50) is determined from the linear regression of a plot of the logarithm of the concentration versus percent inhibition.

The next assay deals with human cyclin E-CDK2 (Homo sapiens, UniProt P24941). Kind of assay: FlashPlate kinase assay, cyclin E-CDK2. It counts as biochemical. The following applies: Rb protein substrate, 1 μM ATP, 33P-ATP, 30 minutes room temperature. How it is done: To determine inhibition of Cdk4, Cdk2 and Cdk1 activity, kinase assays were conducted using FlashPlate™ assays (NEN™-Life Science Products). FlashPlate assays were performed using recombinant human cyclin B-CDK1, human cyclin E-CDK2 or human cyclin D1-CDK4 complexes. GST-cyclinE (GST-cycE), CDK2, GST-cyclinB (GST-cycB), CDK1, GST-CDK4 and cyclin D1 (cycD1) cDNA clones in baculovirus vectors were provided by Dr. W. Harper at the Baylor College of Medicine, Houston, Tex. Proteins were co-expressed in High Five™ insect cells and the complex was purified on glutathione Sepharose resin (Pharmacia, Piscataway, N.J.) as previously described (Harper, J. W. et al. Cell 1993, 75, 805–816). A 6×-Histidine tagged truncated form of retinoblastoma (Rb) protein (amino acid 386–928) was used as the substrate for the cycD1-CDK4, cycB-CDK1 and the cycE-CDK2 assays (the expression plasmid was provided by Dr. Veronica Sullivan, Department of Molecular Virology, Roche Research Centre, Welwyn Garden City, United Kingdom). The Rb protein is a natural substrate for phosphorylation by CDK4, CDK2 and CDK1 (see Herwig and Strauss Eur. J. Biochem. Vol. 246 (1997) pp. 581–601 and the references cited therein).
The expression of the 62Kd protein was under the control of an IPTG inducible promoter in an M15 E. coli strain. Cells were lysed by sonication and purification was carried out by binding lysates at pH 8.0 to a Ni-chelated agarose column pretreated with 1 mM imidazole. The resin was then washed several times with incrementally decreasing pH buffers to pH 6.0, and eluted with 500 mM imidazole. Eluted protein was dialysed against 20 mM HEPES pH 7.5, 30% glycerol, 200 mM NaCl, and 1 mM DTT. Purified Rb fusion protein stocks were quantitated for protein concentration, aliquoted, and stored at −70° C.
For all three kinase assays reported herein, 96-well FlashPlates were coated with Rb protein at 10 μg/ml, using 100 μl per well. Plates were incubated at 4° C. overnight or at room temperature for 3 hours on a shaker. To control for nonspecific phosphorylation, one row of wells was coated with 100 μl/well coating buffer (20 mM HEPES, 0.2 M NaCl). Plates were then washed twice with wash buffer (0.01% Tween 20 in phosphate-buffered saline). Compounds to be tested (“test compounds”) were added to the wells at 5× final concentration. Reactions were initiated by immediate addition of 40 μl reaction mix (25 mM HEPES, 20 mM MgCl2, 0.002% Tween 20, 2 mM DTT, 1 μM ATP, 4 nM ^33P-ATP) and a sufficient amount of enzyme to give counts that were at least 10-fold above background. Plates were incubated at room temperature on a shaker for 30 minutes. Plates were washed four times with the wash buffer, sealed, and counted on the TopCount scintillation counter (Packard Instrument Co., Downers Grove, Ill.]. The percent inhibition of Rb phosphorylation, which is a measure of the inhibition of CDK activity, was determined according to the following formula:
[formula] where “test compound” refers to the average counts per minute of the test duplicates, “nonspecific” refers to the average counts per minute when no CyclinD/Cdk4, etc., was added, and “total” refers to the average counts per minute when no compound was added. The IC50 value is the concentration of test compound that reduces by 50% the protein-kinase induced incorporation of the radiolabel under the test conditions described.

A further assay has as its target human cyclin B-CDK1 (Homo sapiens, UniProt P06493). The assay is described as follows: FlashPlate kinase assay, cyclin B-CDK1. Format: biochemical. The following applies: Rb protein substrate, 1 μM ATP, 33P-ATP, 30 minutes room temperature.
Another assay concerns the target human cyclin D1-CDK4 (Homo sapiens, UniProt P11802). The assay is described as follows: FlashPlate kinase assay, cyclin D1-CDK4. Format: biochemical. To be noted: Rb protein substrate, 1 μM ATP, 33P-ATP, 30 minutes room temperature; read-out: CDK4 IC50.

pIC50: −log10 of the molar value.

human cyclin D1-CDK4, sequence (P11802 whole entry): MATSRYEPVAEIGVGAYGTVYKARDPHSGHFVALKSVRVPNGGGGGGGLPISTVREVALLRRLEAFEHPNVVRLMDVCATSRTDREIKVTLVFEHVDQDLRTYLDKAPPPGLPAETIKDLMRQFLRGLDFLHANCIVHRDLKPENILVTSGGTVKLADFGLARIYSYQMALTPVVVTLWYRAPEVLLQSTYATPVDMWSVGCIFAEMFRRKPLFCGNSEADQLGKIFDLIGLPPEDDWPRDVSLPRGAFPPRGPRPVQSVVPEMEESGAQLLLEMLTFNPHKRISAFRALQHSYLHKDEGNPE
human cyclin D1-CDK4, sequence (P24385 whole entry partner): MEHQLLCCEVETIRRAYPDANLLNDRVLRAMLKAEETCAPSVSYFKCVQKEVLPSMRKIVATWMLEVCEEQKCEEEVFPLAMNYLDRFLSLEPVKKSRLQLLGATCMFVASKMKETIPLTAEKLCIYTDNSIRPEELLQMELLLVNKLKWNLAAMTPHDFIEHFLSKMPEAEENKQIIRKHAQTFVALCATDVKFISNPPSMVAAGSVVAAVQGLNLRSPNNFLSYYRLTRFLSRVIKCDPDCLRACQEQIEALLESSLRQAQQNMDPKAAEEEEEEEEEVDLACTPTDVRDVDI
human cyclin B-CDK1, sequence (P06493 whole entry): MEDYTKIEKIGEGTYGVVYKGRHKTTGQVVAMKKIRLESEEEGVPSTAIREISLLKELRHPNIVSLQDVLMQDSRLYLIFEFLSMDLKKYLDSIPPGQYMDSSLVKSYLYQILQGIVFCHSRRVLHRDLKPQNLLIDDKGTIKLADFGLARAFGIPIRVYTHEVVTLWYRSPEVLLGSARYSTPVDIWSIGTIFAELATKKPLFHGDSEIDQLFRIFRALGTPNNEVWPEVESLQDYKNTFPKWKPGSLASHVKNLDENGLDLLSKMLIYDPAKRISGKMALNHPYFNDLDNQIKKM
human cyclin B-CDK1, sequence (P14635 whole entry partner): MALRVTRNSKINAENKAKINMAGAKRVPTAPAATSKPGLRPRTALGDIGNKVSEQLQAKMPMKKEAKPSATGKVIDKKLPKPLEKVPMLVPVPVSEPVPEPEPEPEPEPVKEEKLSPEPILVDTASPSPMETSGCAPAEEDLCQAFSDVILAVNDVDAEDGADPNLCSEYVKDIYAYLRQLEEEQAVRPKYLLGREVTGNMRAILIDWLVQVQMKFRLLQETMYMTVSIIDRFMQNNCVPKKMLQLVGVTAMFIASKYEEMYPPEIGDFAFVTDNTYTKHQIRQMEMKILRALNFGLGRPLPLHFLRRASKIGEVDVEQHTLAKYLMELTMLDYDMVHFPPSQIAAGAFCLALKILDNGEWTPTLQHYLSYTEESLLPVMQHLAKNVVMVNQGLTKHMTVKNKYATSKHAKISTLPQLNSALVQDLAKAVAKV

The pIC50 is −log10 of the IC50, conventionally taken in molar units. As for `Nc1nc(Nc2ccc(N3CCC(N4CCCC(O)C4)CC3)cc2)sc1C(=O)c1ccc2c(c1)OCO2` (stereo not drawn) [Example 37, {4-Amino-2-[4-(3-hydroxy-[1,4′]bipiperidinyl-1′-yl)-phenylamino]-thiazol-5-yl}-benzo[1,3]dioxol-5-yl-methanone], the pIC50 in assay [1] is 7.00; against human cyclin E-CDK2, 6.28; at human cyclin B-CDK1 it was 5.79; on human cyclin D1-CDK4, 5.45.

Take `Cc1ccc(C(=O)c2sc(Nc3ccc(N4CCC(N5CCCC5)CC4)cc3)nc2N)cc1F` [Example 121, {4-Amino-2-[4-(4-pyrrolidin-1-yl-piperidin-1-yl)-phenylamino]-thiazol-5-yl}-(3-fluoro-4-methyl-phenyl)-methanone]: the pIC50 in assay [1] is 5.67; at human cyclin E-CDK2 it was 5.71; at human cyclin B-CDK1, 6.15; on human cyclin D1-CDK4 it was 7.96.

With `Nc1nc(Nc2ccc(N3CCC(N4CCCC4)CC3)cc2)sc1C(=O)c1cccc(C2CC2)c1` [Example 119, {4-Amino-2-[4-(4-pyrrolidin-1-yl-piperidin-1-yl)-phenylamino]-thiazol-5-yl}-(3-cyclopropyl-phenyl)-methanone], the pIC50 in assay [1] was 5.50; at human cyclin E-CDK2 it was 5.49; on human cyclin B-CDK1, 5.82; at human cyclin D1-CDK4, 7.96.

In the case of `Nc1nc(Nc2ccc(N3CCC(N4CCCC4)CC3)cc2)sc1C(=O)c1ccc2c(c1)OCCO2` [Example 26, {4-Amino-2-[4-(4-pyrrolidin-1-yl-piperidin-1-yl)-phenylamino]-thiazol-5-yl}-(2,3-dihydro-benzo[1,4]dioxin-6-yl)-methanone], the pIC50 was 5.55 in assay [1], 5.37 against human cyclin E-CDK2, 5.97 against human cyclin B-CDK1 and 8.30 at human cyclin D1-CDK4.

Consider `CN(C)C1CCN(c2ccc(Nc3nc(N)c(C(=O)c4cccc(O)c4)s3)cc2)CC1` [Example 50, {4-Amino-2-[4-(4-dimethylamino-piperidin-1-yl)-phenylamino]-thiazol-5-yl}-(3-hydroxy-phenyl)-methanone], for which the pIC50 in assay [1] was 5.51; at human cyclin E-CDK2, 5.55; at human cyclin B-CDK1, 6.09; at human cyclin D1-CDK4, 8.15.

`CCNC1CCN(c2ccc(Nc3nc(N)c(C(=O)c4cccc(OC)c4)s3)cc2)CC1` [Example 135, {4-Amino-2-[4-(4-ethylamino-piperidin-1-yl)-phenylamino]-thiazol-5-yl}-(3-methoxy-phenyl)-methanone]: the pIC50 is 5.47 in assay [1], 5.21 against human cyclin E-CDK2, 5.94 against human cyclin B-CDK1 and 7.55 on human cyclin D1-CDK4.

As to `Cc1cccc(C(=O)c2sc(Nc3ccc(N4CCC(N(C)C)CC4)cc3)nc2N)c1` [Example 110, {4-Amino-2-[4-(4-dimethylamino-piperidin-1-yl)-phenylamino]-thiazol-5-yl}-tolyl-methanone], the figures for the pIC50 (in assay [1]; against human cyclin B-CDK1; at human cyclin D1-CDK4) were 5.57, 5.70 and 7.60, respectively.

Take `CCNC1CCN(c2ccc(Nc3nc(N)c(C(=O)c4cccc(F)c4)s3)cc2)C1` (stereo not drawn) [Example 132, {4-Amino-2-[4-(3-ethylamino-pyrrolidin-1-yl)-phenylamino]-thiazol-5-yl}-(3-fluoro-phenyl)-methanone]: the pIC50 was 6.25 in assay [1], 6.15 against human cyclin E-CDK2, 6.60 on human cyclin B-CDK1 and 7.54 on human cyclin D1-CDK4.

Turning to `Nc1nc(Nc2ccc(N3CCC(N4CCCC(O)C4)CC3)cc2)sc1C(=O)c1cccc(F)c1` (stereo not drawn) [Example 35, {4-Amino-2-[4-(3-hydroxy-[1,4′]bipiperidinyl-1′-yl)-phenylamino]-thiazol-5-yl}-(3-fluoro-phenyl)-methanone], the pIC50 in assay [1] was 7.74; against human cyclin E-CDK2 it was 6.92; at human cyclin B-CDK1, 6.13; at human cyclin D1-CDK4, 5.96.

Turning to `CCNC1CCN(c2ccc(Nc3nc(N)c(C(=O)c4cccc(F)c4)s3)cc2)CC1` [Example 137, {4-Amino-2-[4-(4-ethylamino-piperidin-1-yl)-phenylamino]-thiazol-5-yl}-(3-fluoro-phenyl)-menthanone], the pIC50 in assay [1] was 5.85; at human cyclin B-CDK1, 6.41; at human cyclin D1-CDK4 it was 7.49.

Turning to `COc1ccc(C(=O)c2sc(Nc3ccc(N4CCC(N5CCCCC5)CC4)cc3)nc2N)cc1[N+](=O)[O-]` [Example 108, [4-Amino-2-(4-[1,4′]bipiperidinyl-1′-yl-phenylamino)-thiazol-5-yl]-(4-methoxy-3-nitro-phenyl)-methanone], the pIC50 was 6.00 in assay [1], 5.58 against human cyclin E-CDK2, 5.89 against human cyclin B-CDK1 and 7.47 on human cyclin D1-CDK4.

Regarding `COc1cccc(C(=O)c2sc(Nc3ccc(N4CCC(N(C)C)CC4)cc3)nc2N)c1` [Example 45, {4-Amino-2-[4-(4-dimethylamino-piperidin-1-yl)-phenylamino]-thiazol-5-yl}-(3-methoxy-phenyl)-methanone], the pIC50 in assay [1] is 5.61; against human cyclin E-CDK2, 5.29; on human cyclin B-CDK1, 5.61; on human cyclin D1-CDK4 it was 8.30.

Consider `Nc1nc(Nc2ccc(N3CCC(N4CCCC(O)C4)CC3)cc2)sc1C(=O)c1ccc2c(c1)OCCO2` (stereo not drawn) [Example 38, {4-Amino-2-[4-(3-hydroxy-[1,4′]bipiperidinyl-1′-yl)-phenylamino]-thiazol-5-yl}-(2,3-dihydro-benzo[1,4]dioxin-6-yl)-methanone], for which the pIC50 in assay [1] is 7.82; on human cyclin B-CDK1 it was 5.39; on human cyclin D1-CDK4, 5.28.

Regarding `Cc1cccc(C(=O)c2sc(Nc3ccc(N4CCC(N5CCCCC5)CC4)cc3)nc2N)c1` [Example 111, [4-Amino-2-(4-[1,4′]bipiperidinyl-1′-yl-phenylamino)-thiazol-5-yl]-tolyl-methanone], the values for the pIC50 (in assay [1]; on human cyclin D1-CDK4) were 5.79 and 7.60, respectively.

Values taken from patent US7211576B2, “Diaminothiazoles” (Hoffmann-La Roche Inc., priority 2004, dated 2007).
